Laboratory results reported in US20220041623A1, “INDOLE MACROCYCLIC DERIVATIVE, PREPARATION METHOD THEREOF AND APPLICATION THEREOF IN MEDICINE” (JIANGSU HENGRUI MEDICINE CO., LTD., priority 2018, published 2022).

Columns and labels:
[1] = target: T1, CYP2C9 (Homo sapiens, UniProt P11712); test: Inhibition of human liver microsomal P450 subenzyme CYP2C9; assay type: in vitro ADME; details: human liver microsomes, diclofenac metabolic site, 30 minutes incubation; read-out: 2C9 IC50
T1 construct: Human liver microsomes (Corning Gentest, Cat No. 452161, Lot No. 6123001, 33 Donors); tissue Corning Gentest 452161; host or cells: human liver microsomes, pool of 33 donors
T1 sequence (P11712 whole entry): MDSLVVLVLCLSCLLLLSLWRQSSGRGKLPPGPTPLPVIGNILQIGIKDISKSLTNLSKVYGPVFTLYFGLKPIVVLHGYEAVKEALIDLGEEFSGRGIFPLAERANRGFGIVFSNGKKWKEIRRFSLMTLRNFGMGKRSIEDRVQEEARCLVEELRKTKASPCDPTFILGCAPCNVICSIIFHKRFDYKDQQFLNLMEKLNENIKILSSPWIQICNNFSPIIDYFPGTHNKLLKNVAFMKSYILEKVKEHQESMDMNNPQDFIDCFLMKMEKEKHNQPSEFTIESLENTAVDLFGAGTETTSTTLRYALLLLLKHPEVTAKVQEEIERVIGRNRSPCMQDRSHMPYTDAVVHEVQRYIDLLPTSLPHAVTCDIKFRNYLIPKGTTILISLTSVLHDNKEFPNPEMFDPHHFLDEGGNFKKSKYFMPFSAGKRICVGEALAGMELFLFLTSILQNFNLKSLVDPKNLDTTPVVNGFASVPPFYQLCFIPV
Protocol: (§1) The inhibition effect of the compound of the present invention on the enzymatic activity of human liver microsomal P450 subenzymes CYP2C9 and 2C19 was determined by the following experimental method.
(§2) 6. CYP probe substrate for 2C9 (Diclofenac/4 μM, SIGMA, Cat No. D6899-10G) and CYP probe substrate for 2C19 ((S)-Mephenytoin/20 μM, J&K Scientific Ltd., CatNo. 303768); positive control inhibitor for 2C9 ([…], SIGMA, Cat No. 526-08-9) and positive control inhibitor for 2C19 (Ticlopidine, SIGMA, Cat No. T6654-1G).
(§3) 100 mM PBS buffer solution was formulated. 2.5 mg/mL microsome solution, 15 mM MgCl2 solution and 5 mM NADPH solution were formulated with the buffer solution. 30 mM stock solution was diluted with DMSO into a serial solution I with concentrations of 10 mM, 3 mM, 1 mM, 0.3 mM, 0.1 mM, 0.03 mM, […] and 0 mM. The above serial solution I was diluted for 200 times with the phosphate buffer solution (PBS) to obtain a serial test solution II (150, 50, 15, 5, 1.5, 0.15, 0.015, 0 μM). […]
(§4) The data were calculated by Graphpad Prism to obtain the IC50 values of the compound for the diclofenac metabolic site of CYP2C9 and (S)-mephenytoin metabolic site of 2C19. which are shown in Table 3.

[2] = target: T2, MCL-1 protein (Homo sapiens, UniProt Q07820); test: MCL-1 protein binding experiment (HTRF, MCL-1/Bim)
T2 construct: Bim peptide bought from R&D, 3526/1 NA
T2 sequence (Q07820 171-327): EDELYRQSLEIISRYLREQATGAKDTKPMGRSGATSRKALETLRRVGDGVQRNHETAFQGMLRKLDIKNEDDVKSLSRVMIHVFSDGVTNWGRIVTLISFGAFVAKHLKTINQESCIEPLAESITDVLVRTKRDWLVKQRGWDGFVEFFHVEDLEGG
Protocol: The following method was used to determine the binding ability of the compound of the present invention to MCL-1 protein. The experimental method is briefly described as follows.
MCL-1 inhibitors can bind to MCL-1 protein to prevent the binding of MCL-1 to Bim protein. The experiment evaluates the binding ability of MCL-1 inhibitor to MCL-1 protein by detecting the binding of MCL-1 to Bim protein through HTRF method, and the activity of the compound was evaluated according to the Ki value.
The mixture was incubated at room temperature for 2 hours, followed by the detection of fluorescence signals at 620 nm and 665 nm by PHERAstar. The data was processed by GraphPad software.

[3] = system: AMO-1 cells; test: Cell proliferation experiment (intracellular ATP, CellTiter-Glo), AMO-1; assay type: cell-based; details: Homo sapiens, AMO1, 72 h; AMO-1 cells, incubated 3 days, CellTiter-Glo; read-out: AMO-1 IC50
Protocol: (§5) The following method evaluates the inhibition effect of the compound of the present invention on the proliferation of AMO-1 and MV-4-11 cells according to IC50 value by detecting intracellular ATP content. The experimental method is briefly described as follows.
1. AMO-1, human bone marrow plasmacytoma (Nanjing Cobioer Biosciences Co., Ltd., CBP60242)
(§6) AMO-1 cells were cultured in RPMI1640 medium (containing 20% FBS), and MV-4-11 cells were cultured in IMDM medium (containing 10% FBS). The cells were passaged for 2 to 3 times a week, with a passage ratio of 1:4 or 1:6. During the passage, the cells were transferred to a centrifuge tube and centrifuged at 1200 rpm for 3 minutes. The supernatant was discarded, and fresh medium was added to resuspend the cells. […] 100 μL of complete medium was added to the periphery of the 96-well plate. The plate was incubated in an incubator for 24 hours (37° C., 5% CO2).
(§7) The test sample was diluted to 20 mM with DMSO, and then diluted to 9 concentrations by diluting in 4-fold gradient. Blank and control wells were set. 5 μL of the test compound solution formulated as gradient concentration was added to 95 μL of fresh medium. 10 µL of the above drug-containing medium solution was added to the plate. The plate was incubated in an incubator for 3 days (37° C., 5% CO2). In the 96-well cell culture plate, 50 μL of CellTiter-Glo reagent was added to each well, and the plate was left to stand in the dark at room temperature for 5 to 10 minutes. The chemiluminescence signal value was read in PHERAstar, and the data was processed by GraphPad software.

[4] = target: T3, 2C19 (Homo sapiens, UniProt P33261); test: Inhibition of human liver microsomal P450 subenzyme CYP2C19; assay type: in vitro ADME; details: human liver microsomes, (S)-mephenytoin metabolic site, 30 minutes incubation
T3 construct: Human liver microsomes (Corning Gentest, Cat No. 452161, Lot No. 6123001, 33 Donors); tissue Corning Gentest 452161; host or cells: human liver microsomes, pool of 33 donors
T3 sequence (P33261 whole entry): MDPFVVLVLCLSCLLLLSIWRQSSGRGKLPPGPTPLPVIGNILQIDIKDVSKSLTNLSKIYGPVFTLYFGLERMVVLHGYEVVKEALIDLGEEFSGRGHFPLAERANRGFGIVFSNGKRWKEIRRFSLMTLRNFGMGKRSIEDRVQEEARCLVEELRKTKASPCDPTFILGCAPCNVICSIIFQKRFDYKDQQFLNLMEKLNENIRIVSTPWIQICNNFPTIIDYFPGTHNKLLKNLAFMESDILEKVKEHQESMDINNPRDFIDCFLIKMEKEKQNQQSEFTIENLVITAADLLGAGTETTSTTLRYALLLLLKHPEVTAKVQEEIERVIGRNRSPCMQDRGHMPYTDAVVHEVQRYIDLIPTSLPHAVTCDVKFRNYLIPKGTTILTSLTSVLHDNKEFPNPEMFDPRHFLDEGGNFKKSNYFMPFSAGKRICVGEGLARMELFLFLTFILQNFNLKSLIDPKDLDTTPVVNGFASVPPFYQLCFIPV
Protocol: as §1, §2, §3, §4

[5] = system: MV-4-11 cells; test: Cell proliferation experiment (intracellular ATP, CellTiter-Glo), MV-4-11; assay type: cell-based; details: Homo sapiens, MV4-11, 72 h; MV-4-11 cells, incubated 3 days, CellTiter-Glo; read-out: MV-4-11 IC50
Protocol: as §5, §6, §7

IC50 [1]: 16600 nM
inhibition at up to 10 µM ([2]; HTRF MCL-1/Bim binding, initial concentration 10 μM, read-out: Maximum inhibition rate (%)): 100%
Ki ([2]; HTRF, 0.1 nM His-MCL-1, 2.5 nM bio-Bim, room temperature): 0.16 nM
IC50 [4]: > 30000 nM
IC50 [5]: 26 nM
Compound: Cc1c(C(=O)O)n2c3ccc(Cl)c(c13)-c1c(nn(C)c1C)CSCc1cc(n(C)n1)CSc1cc3c(c(c1)OCCC2)CCC3 (single isomer, unassigned) [Example 13-1, (Ra)-17-Chloro-5,13,14,22-tetramethyl-28-oxa-2,9-dithia-5,6,12,13,24-pentaazaheptacyclo[27.6.1.1^4,7.0^11,15.0^16,21.0^20,24.0^30,34]heptatriaconta-1(36),4(37),6,11,14,16,18,20,22,29,34-undecaene-23-carboxylic acid]
IC50 [3]: 26 nM
